According to patent publication US20220218707A1, “USE OF COMPOSITION OF IMATINIB OR DERIVATIVE THEREOF IN PREPARATION OF DRUG FOR PREVENTING, TREATING, AND CONTROLLING ADDICTION RELAPSE” (Wuhan University, priority 2019, published 2022):
Where a name gives a salt, the structure may show the parent alone. Read-outs that look alike come from different tables or passages of the source.

How the values were obtained:
c-Kit [1] = target: T1, c-Kit (Rattus norvegicus, UniProt F7EWK5); conditions: acute ethanol administration
SD rats [2] = test system: SD rats
Excerpt: Groups: A total of 14 groups (n=10) were included.
The rest process was the same as that in Example 3.

SD rats [3] = experiment: Morphine sensitization model (spontaneous activity); type: in vivo
SD rats [4] = experiment: Ethanol sensitization model; type: in vivo; conditions: imatinib mesylate 15, 20, or 30 mg/kg
SD rats [5] = experiment: Development of high-sugar and high-fat food-induced CPP; type: in vivo
SD rats [6] = experiment: Nicotine withdrawal symptoms (spontaneous activity); type: in vivo
Excerpt: Test instrument: Conditional place preference (CPP) test apparatus (the same as that in Example 19); and spontaneous activity detecting apparatus (developed by the Institute of Chinese Materia Medica, China Academy of Chinese Medical Sciences). The test was automatically controlled by a computer. The apparatus includes four spontaneous activity observation chamber, a video synthesizer, a video pattern sampling card, and analysis software. The system performs video tracking of the rat activity and automatically records the rat activity track and activity times. The spontaneous activity evaluation index is the total activity times in a certain period of time (such as 60 min), and an increase in the total activity times indicates an increase in spontaneous activity. […] In addition, a physiological saline+physiological saline group without nicotine treatment was used as the control group. […] After 60 min, a spontaneous activity detecting apparatus was used to detect the spontaneous activities.

SD rats [7] = test system: SD rats; remark: listed apart in the source
SD rats [8] = test system: SD rats; remark: listed apart in the source
SD rats [9] = conditions: for drug-seeking behavior and relapse after cocaine addiction: imatinib mesylate 20 and 30 mg/kg
SD rats [10] = test system: SD rats; remark: listed apart in the source
SD rats [11] = test system: SD rats; remark: listed apart in the source
SD rats [12] = conditions: direct administration; any dose of imatinib mesylate
SD rats [13] = test system: SD rats; remark: listed apart in the source
SD rats [14] = conditions: imatinib mesylate 1, 5, 10, 20, and 30 mg/kg i.p.
SD rats [15] = conditions: imatinib mesylate 1, 5, 10, 20, or 30 mg/kg i.p.
SD rats [16] = conditions: for morphine tolerance and heat pain threshold in CFA rats: day 6 after model establishment
[17] = Naloxone-precipitated withdrawal symptoms after morphine-induced CPP (jump times, body weight); conditions: imatinib mesylate 15, 30, and 45 mg/kg with morphine 5 mg/kg, naloxone 2 mg/kg s.c.; combination or compound preparation
c-Kit [18] = target: T1, c-Kit; conditions: acute morphine 10 mg/kg s.c.; not in other brain regions
c-Kit [19] = target: T1, c-Kit; conditions: acute nicotine 0.5 mg/kg s.c.; not in other brain regions
[20] = imatinib mesylate 1, 5, and 10 mg/kg, ethanol 0.75 g/kg for training CPP
[21] = imatinib mesylate 1 and 5 mg/kg, ethanol 0.5 g/kg for training CPP
[22] = imatinib mesylate 10, 15, 20, and 30 mg/kg, ethanol 0.5 g/kg for training CPP
[23] = imatinib mesylate 15, 20, and 30 mg/kg, ethanol 0.75 g/kg for training CPP

T1 sequence (F7EWK5 26-978): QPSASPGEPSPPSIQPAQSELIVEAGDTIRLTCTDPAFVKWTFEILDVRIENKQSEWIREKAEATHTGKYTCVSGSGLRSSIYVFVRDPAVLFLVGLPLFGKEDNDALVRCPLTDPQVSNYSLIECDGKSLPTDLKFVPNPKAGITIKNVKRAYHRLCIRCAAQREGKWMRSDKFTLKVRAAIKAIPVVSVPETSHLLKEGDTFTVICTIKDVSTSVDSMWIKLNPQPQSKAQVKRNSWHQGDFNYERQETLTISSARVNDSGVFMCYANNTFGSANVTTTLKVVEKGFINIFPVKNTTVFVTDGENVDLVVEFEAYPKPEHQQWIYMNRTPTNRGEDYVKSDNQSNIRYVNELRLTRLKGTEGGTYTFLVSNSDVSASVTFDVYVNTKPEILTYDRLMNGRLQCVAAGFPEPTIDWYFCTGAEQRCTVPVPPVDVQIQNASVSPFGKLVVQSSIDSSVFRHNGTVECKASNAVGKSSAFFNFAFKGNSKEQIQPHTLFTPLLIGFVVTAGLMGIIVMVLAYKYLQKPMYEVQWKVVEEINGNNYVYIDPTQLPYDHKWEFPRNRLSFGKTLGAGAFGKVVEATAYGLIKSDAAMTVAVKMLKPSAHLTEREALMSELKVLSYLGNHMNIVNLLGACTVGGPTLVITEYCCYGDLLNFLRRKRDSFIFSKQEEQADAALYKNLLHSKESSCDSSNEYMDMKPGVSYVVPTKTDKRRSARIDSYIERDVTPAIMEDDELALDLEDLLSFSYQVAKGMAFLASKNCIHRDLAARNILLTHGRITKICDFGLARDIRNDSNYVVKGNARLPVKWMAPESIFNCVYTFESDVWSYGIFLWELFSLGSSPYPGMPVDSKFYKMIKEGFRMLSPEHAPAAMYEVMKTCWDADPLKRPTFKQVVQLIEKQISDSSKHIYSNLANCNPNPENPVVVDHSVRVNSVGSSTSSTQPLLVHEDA

Structure (SMILES): CCO [ethanol]
- activation of c-kit receptor in neurons in nucleus accumbens (c-Kit [1]): specifically activated

Structure (SMILES): Cc1ccc(NC(=O)c2ccc(CN3CCN(C)CC3)cc2)cc1Nc1nccc(-c2cccnc2)n1 [imatinib mesylate]
- CPP (drug-seeking behavior) after ethanol addiction (SD rats [2]; [20]): no obvious effect
- CPP (drug-seeking behavior) after ethanol addiction (SD rats [2]; [21]): no obvious effect
- CPP (drug-seeking behavior) after ethanol addiction (SD rats [2]; [22]): can significantly relieve CPP and prevent it from being primed
- CPP (drug-seeking behavior) after ethanol addiction (SD rats [2]; [23]): can significantly relieve CPP and prevent it from being primed
- expression of morphine sensitization (SD rats [3]; imatinib mesylate 30 mg/kg i.p. on day 11 before morphine 5 mg/kg challenge): the expression of morphine sensitization in rats is inhibited
- development of morphine sensitization (SD rats [3]; imatinib mesylate 30 mg/kg with morphine 10 mg/kg for 5 consecutive days): the development of morphine sensitization in rats is inhibited
- development of ethanol sensitization (SD rats [4]; ethanol 0.75 g/kg for 5 consecutive days): the development of ethanol sensitization in rats is inhibited
- expression of ethanol sensitization (SD rats [4]; ethanol challenge on day 11): the expression of ethanol sensitization in rats is inhibited
- development of addiction to high-sugar and high-fat food (CPP) (SD rats [5]; imatinib mesylate 1, 5, and 10 mg/kg i.p.): no significant effect on the development of addiction to high-sugar and high-fat food
- development of addiction to high-sugar and high-fat food (CPP) (SD rats [5]; imatinib mesylate 20 and 30 mg/kg i.p.): can significantly inhibit the development of addiction to high-sugar and high-fat food
- nicotine withdrawal symptoms (spontaneous activities) (SD rats [6]; imatinib mesylate 10, 20, and 30 mg/kg, addiction trained by 0.25 mg/kg of nicotine): can differently alleviate the withdrawal symptoms
- nicotine withdrawal symptoms (spontaneous activities) (SD rats [6]; imatinib mesylate 20 and 30 mg/kg, addiction trained by 0.5 mg/kg of nicotine): can alleviate the withdrawal symptoms
- development of ethanol-induced CPP (SD rats [7]; [20]): no significant effect on the development of CPP
- development of ethanol-induced CPP (SD rats [7]; [21]): no significant effect on the development of CPP
- development of ethanol-induced CPP (SD rats [7]; [22]): can significantly relieve CPP
- development of ethanol-induced CPP (SD rats [7]; [23]): can significantly relieve CPP
- CPP (drug-seeking behavior) after morphine addiction (SD rats [8]; imatinib mesylate 1, 5, and 10 mg/kg i.p., morphine 10 mg/kg for training CPP): no obvious effect
- CPP (drug-seeking behavior) after morphine addiction (SD rats [8]; imatinib mesylate 1 and 5 mg/kg i.p., morphine 5 mg/kg for training CPP): no obvious effect
- CPP (drug-seeking behavior) after morphine addiction (SD rats [8]; imatinib mesylate 10, 20, and 30 mg/kg i.p., morphine 5 mg/kg for training CPP): can significantly relieve CPP and prevent it from being primed
- CPP (drug-seeking behavior) after morphine addiction (SD rats [8]; imatinib mesylate 20 and 30 mg/kg i.p., morphine 10 mg/kg for training CPP): can significantly relieve CPP and prevent it from being primed
- priming (relapse) after cocaine addiction (SD rats [9]; direct administration of imatinib mesylate 20 and 30 mg/kg): the rats are still primed
- drug-seeking behavior and relapse after cocaine addiction (SD rats [9]; unconditioned stimulus cocaine 3 mg/kg): can prevent the drug-seeking behavior and relapse
- drug-seeking behavior and relapse after cocaine addiction (SD rats [9]; unconditioned stimulus cocaine 4 mg/kg): can only inhibit the drug-seeking behavior, and cannot prevent relapse
- priming (relapse) after challenge with a small dose of ethanol (SD rats [10]; direct administration of imatinib mesylate): are all primed
- CPP after ethanol addiction, all treatment groups (SD rats [10]; imatinib mesylate 15 and 30 mg/kg, ethanol 0.75 g/kg for training CPP): can significantly reduce the CPP
- drug-seeking behavior and relapse after ethanol addiction (SD rats [10]; unconditioned stimulus ethanol 0.5 g/kg, imatinib mesylate 20 and 30 mg/kg): can only inhibit the drug-seeking behavior, and cannot prevent relapse
- priming with high-sugar and high-fat food after 1 week (SD rats [11]; direct administration, all doses of imatinib mesylate): cannot prevent the rats from being primed
- food-seeking behavior (CPP) (SD rats [11]; imatinib mesylate 10, 20, and 30 mg/kg, substance cue, environmental cue or direct administration): can inhibit the food-seeking behavior
- gambling behavior (choice) (SD rats [12]): no significant effect
- morphine tolerance (heat pain threshold) (SD rats [13]; 1, 5, and 10 mg/kg i.p., morphine 10 mg/kg s.c.): do not have this inhibitory effect
- morphine tolerance (heat pain threshold) (SD rats [13]; 20 and 30 mg/kg i.p., morphine 10 mg/kg s.c.): can prevent the development of CPP
- morphine tolerance (heat pain threshold) (SD rats [13]; 20 and 30 mg/kg i.p., morphine 10 mg/kg s.c., listed as Imatinib sulfonate): can significantly reduce the expression of morphine-induced tolerance
- minimum dose of imatinib mesylate preventing morphine tolerance (SD rats [13]; dose ratio to morphine 2:1 or greater): 10 mg/kg
- morphine tolerance (heat pain threshold) (SD rats [13]; imatinib mesylate 10, 20, and 30 mg/kg, tolerance induced by 5 mg/kg morphine): can prevent the development of morphine tolerance
- treatment and prevention of morphine tolerance (SD rats [13]; low dose of 5 mg/kg, rats): can be used in the treatment and prevention of morphine tolerance in rats
- HPT, imatinib mesylate+physiological saline compared with physiological saline+physiological saline (SD rats [14]): no obvious change
- heat pain threshold, imatinib mesylate+morphine compared with morphine+physiological saline (SD rats [14]; morphine 10 mg/kg s.c.): no obvious change
- hind paw licking time, imatinib mesylate+physiological saline compared with physiological saline+physiological saline (SD rats [15]): no obvious changes
- hind paw licking time, imatinib mesylate+morphine compared with morphine+physiological saline (SD rats [15]; morphine 10 mg/kg s.c.): no obvious changes
- morphine tolerance and heat pain threshold in CFA rats (SD rats [16]; imatinib mesylate 1, 5, and 10 mg/kg): have no this effect
- morphine tolerance and heat pain threshold in CFA rats (SD rats [16]; imatinib mesylate 20 and 30 mg/kg): can significantly prevent the development of morphine tolerance
- heat pain threshold, imatinib mesylate+morphine compared with morphine+physiological saline (SD rats [16]; days 4 and 5 after model establishment, morphine 10 mg/kg s.c.): no obvious change
- morphine withdrawal symptoms (jump times, changes in body weight) [17]: can alleviate the withdrawal symptoms

Structure (SMILES): CNC1(C)C2CCC(C2)C1(C)C (centres unmarked) [mecamylamine]
- spontaneous activities of rats with nicotine addiction (SD rats [6]; mecamylamine 0.5 mg/kg, withdrawal symptoms aroused): the spontaneous activities decreases significantly

Structure (SMILES): CN1CC[C@]23c4c5ccc(O)c4O[C@H]2[C@@H](O)C=C[C@H]3[C@H]1C5 [morphine]
- activation of c-kit receptor and downstream signaling molecules in neurons in nucleus accumbens (c-Kit [18]): specifically activated

Structure (SMILES): CN1CCCC1c1cccnc1 (centres unmarked) [nicotine]
- activation of c-kit receptor and downstream signaling molecules in neurons in nucleus accumbens (c-Kit [19]): specifically activated
